In BigSolDB 2.1:

O=C(NC[C@H]1CN(c2ccc(N3CCOCC3=O)cc2)C(=O)O1)c1ccc(Cl)s1
solubility (mole fraction)
Settings	in 1,4-dioxane	in 2-butanone	in 2-hexanone	in 3-pentanone	in acetone	in acetonitrile	in methyl acetate
273.15 K	–	3.47e-05	1.78e-05	2.43e-05	4.06e-05	4.82e-05	3.2e-05
278.15 K	–	4.55e-05	2.24e-05	3.11e-05	5.29e-05	6.11e-05	4.05e-05
283.15 K	–	5.9e-05	2.79e-05	3.94e-05	6.83e-05	7.68e-05	5.07e-05
288.15 K	0.000132	7.59e-05	3.45e-05	4.95e-05	8.74e-05	9.58e-05	6.31e-05
293.15 K	0.000158	9.67e-05	4.24e-05	6.17e-05	0.000111	0.000119	7.79e-05
298.15 K	0.000189	0.000122	5.17e-05	7.64e-05	0.00014	0.000146	9.54e-05
303.15 K	0.000224	0.000153	6.27e-05	9.39e-05	0.000175	0.000178	0.000116
308.15 K	0.000265	0.000191	7.54e-05	0.000115	0.000216	0.000216	0.000141
313.15 K	0.000311	0.000236	9.03e-05	0.000139	0.000267	0.00026	0.000169
318.15 K	0.000363	0.00029	0.000107	0.000168	0.000326	0.000312	0.000202
323.15 K	0.000422	–	–	–	–	–	–
328.15 K	0.000488	–	–	–	–	–	–
333.15 K	0.000562	–	–	–	–	–	–
